Experiments:
[1] = tested on: optic nerve/lamina cribrosa complex; assay: Photographic circumferential strain analysis during IOP elevation, ON/LC; design: species or system porcine; conditions: Group 3; GTA on PS only; IOP 2-4 to 80 mmHg
Procedure: (§1) Eighteen porcine globes were divided evenly into 3 groups. The optic nerves were transected to expose the ON/LC, and each globe was infused through an in-line pressure transducer for direct IOP control. Surface wave velocity, a non-destructive measure of tissue stiffness, was measured across the ON/LC and PS before and after collagen crosslinking at IOP of 10 and 30 mmHg (groups 1 and 2) and at each globe's preinflation IOP and 80 mmHg (group 3). In group 3, papillary strain was measured by analyzing the displacement of fiducial marks immediately adjacent to the ON/LC using digital photography.
In group 3 (n=6), the same procedure described for group 2 was implemented with the following exceptions. First, four fiducial ink marks were placed in each quadrant of the PS immediately adjacent to the ON/LC prior to measurement. High-resolution (7.1 megapixel) digital photos were then taken at both low and high IOP before and after crosslinking. The vertical and horizontal distances between the outer extent of the ink marks and the outer margins of the optic nerve were measured in Photoshop (Adobe Systems, Inc., San Jose, Calif.), and the centripetal displacement of the fiducial marks (Δ1) was divided by the initial distance between the marks (10) to yield dimensionless indicators of circumferential strain (ζ=Δ1/10) in the peripapillary sclera and ON/LC, respectively. Second, measurements were acquired at each eye's pre-inflation pressure (between 2 to 4 mmHg) and at 80 mmHg to ensure that measurable changes in SWV and ON/LC geometry would be generated in at least one experimental group. As in group 2, the peripapillary sclera was selectively exposed to GTA and post-crosslinking measurements were repeated at low and high IOP. Same-eye statistical comparisons of wave velocity and strain were performed with paired student's t-tests.

[2] = tested on: optic nerve/lamina cribrosa complex; assay: Surface wave velocity (stiffness) across the optic nerve/lamina cribrosa complex of whole globes, Sonic Eye elastometer; design: species or system porcine; conditions: for Mean ON/LCC Stiffness, After Glutaraldehyde Crosslinking: Example 2, GTA annular sponge on PS only ~30 min
Procedure: Surface wave velocity (SWV) is a measure of tissue stiffness, and is performed by detecting the velocity of an ultrasonic wave between 2 points (Sonic Eye, Priavision, Menlo Park, Calif.) (Dupps W J, et al., J Refract Surg; 23: 66-75 (2007)). 19 porcine eyes were divided into 2 groups. In group 1 (6 eyes), the SWV across the exposed optic nerve/lamina cribrosa complex (ON/LCC) was initially measured at the eyes' physiologic IOP and at 100 mmHg. The porcine globes were cannulated with IV tubing to facilitate the change in IOP. In group 2 (13 eyes), the pre-treatment SWV was measured across the same region and atop the peri-papillary sclera, after which both regions were treated with riboflavin 1%, Q 5 min×6, and UVA irradiation (˜365 nm at 3 mW/cm^2) for 30 min per eye. The SWV was then re-measured in each eye at the pre-treatment IOP and at 100 mmHg.
An annular sponge soaked in GTA was exposed to the peripapillary sclera for ˜30 minutes, and not the ON/LCC. Measurements were repeated as above, but also along each quadrant of peripapillary sclera to ensure uniformity and symmetry of crosslinking around the ON/LCC. The results are summarized as follows:
as §1
Surface wave velocity (SWV) is a measure of tissue stiffness that has been used in dermatologic applications to measure age-related changes (Potts R O, et al., J Invest Dermatol.; 82(1):97-100 (1984); Potts R O, et al., J Biomech.; 16(6):365-372 (1983); Davis B R, et al., Exp Gerontol; 24(3):201-210 (1989)), softening effects of tissue hydration and skin creams (Vexler A, et al., J Invest Dermatol; 113(5):732-739 (1999)), and sclerosing effects of radiation on breast skin (Gorodetsky R, et al., Int J Radiat Oncol Biol Phys.; 45(4):893-900 (1999)). When acoustic waves in the 0.5 to 30 kHz frequency range are used, propagation speed in skin is related to the density and stiffness of the tissue (Pereira J M, et al., J Biomech.; 23(8):745-751 (1990)). A prototype handheld ocular surface elastometer (Sonic Eye, Priavision, Menlo Park, Calif.) with an operating frequency within this range (4 kHz) and a fixed 4.5 mm wave propagation distance has been described in detail elsewhere (Dupps W J Jr, et al., J Refract Surg.; 23(1):66-75 (2007)). The Sonic Eye was used in this study as a non-destructive means of measuring local in situ tissue stiffness across and around the optic nerve head.
Eighteen porcine eyes were obtained from a local abattoir (Heffelfingers Meats, Inc., Jeromesville, Ohio) and were used within 24 hours postmortem. The optic nerves were dissected under microscopic visualization to expose the ON/LC (FIG. 1). […]
Three experimental groups of 6 eyes each were defined. In group 1, SWV across the optic nerve/lamina cribrosa complex and peripapillary scleral regions of interest were measured at 10 and 30 mmHg to represent a physiological range of pressures. […]

[3] = tested on: porcine sclera; conditions: scleral strips; 1 hour glutaraldehyde, 5 days glyceraldehydes, 30 minutes UVA for riboflavin/UVA; cited from earlier work

## O=CCCCC=O [GTA, glutaraldehyde]
[1]
  Average Circumferential Strain of ON/LC with IOP elevation, Post-Crosslinking Mean ± SD: 0.0 ± 0.0%
  Horizontal Circumferential Strain of ON/LC with IOP elevation, Post-Crosslinking Mean ± SD: 0.0 ± 0.0%
  Vertical Circumferential Strain of ON/LC with IOP elevation, Post-Crosslinking Mean ± SD: 0.0 ± 0.0%
[2]; mean IOP 3 mmHg
  Mean ON/LCC Stiffness, After Glutaraldehyde Crosslinking: 29.5 m/s
[2]; mean IOP 80 mmHg
  Mean ON/LCC Stiffness, After Glutaraldehyde Crosslinking: 29.3 m/s
[2]; Example 3 Group 3, 4% GTA on PS only 30 min, Low IOP = pre-inflation 2-4 mmHg
  Stiffness of Optic Nerve/Lamina Cribrosa Complex, Post-crosslinking Mean ± SD: 29.5±2.9 m/s
[3]
  Rise in porcine scleral stress (rigidity): 8 ×

From US8580789B2, “Treating glaucoma” (The Cleveland Clinic Foundation, priority 2007, dated 2013)
